Data from US20210087290A1, “COMPOUNDS WHICH SPECIFICALLY BIND TO CD38 FOR USE IN THE TREATMENT OF NEURODEGENERATIVE AND INFLAMMATORY DISEASES” (ENCEFA, priority 2017, published 2021).

Experiments:
[1] = tested on: DA (TH^+) neurons; experiment: MPP^+ intoxication model, DA cell survival in midbrain cultures; format: cell-based, Wistar rat
Procedure: (§1) Animals were treated in accordance with the Guide for the Care and Use of Laboratory Animals (National Research Council, 1996), European Directive 86/609, and the guidelines of the local institutional animal care and use committee. Cultures were prepared from the ventral mesencephalon of gestational age 15.5 Wistar rat embryos (Janvier Breeding Center, Le Genest St Isle, France). Dissociated cells in suspension obtained by mechanical trituration of midbrain tissue pieces were seeded at a density of 1.2-1.5 10^5 cells/cm^2 onto tissue culture supports precoated with 1 mg/mL polyethylenimine diluted in borate buffer pH 8.3 as described (Michel et al., 1997. J Neurochem. 69(4):1499-507). […] They were fed daily by replacing 70% of the medium. Routinely, mesencephalic cultures were established on Nunc 24-well culture plates (Thermofischer Scientific, Rochester, N.Y.). Note that these cultures contain tyrosine hydroxylase (TH)^+ neurons that were exclusively dopaminergic (Traver et al., 2006. Mol Pharmacol. 70(1):30-40). TH^+ neurons represented approximately 1-2% of the total number of neuronal cells present in these cultures. The evaluation of the survival of DA neurons was performed by counting cells immunopositive for TH as described (Toulorge et al., 2011. Faseb J. 25(8):2563-73).
Treatments with MPP^+ were performed in cultures where the spontaneous death process was prevented by long-term exposure to depolarizing concentrations of K^+ (30 mM), in the presence of the glutamate receptor antagonist MK801 (5 μM) to prevent unwanted excitotoxic insults as described previously (Douhou et al., 2001. J Neurochem. 78(1):163-74). Treatments with MPP^+ and potential neuroprotective molecules were carried out between 5 and 7 DIV. The number of microglial cells was evaluated in this same model since MPP^+ is known to induce microglial proliferation (Henze et al., 2005. J Neurochem. 95(4):1069-77).
The cultures were fixed for 12 min using 4% formaldehyde in Dulbecco's phosphate-buffered saline (PBS), then washed twice with PBS before an incubation step at 4° C. for 24 h with the following antibodies. A monoclonal anti-TH antibody diluted 1/5000 (ImmunoStar, Inc., Hudson, Wis.) or a polyclonal anti-TH antibody diluted 1/1000 (US Biologicals, Salem, Mass.) was used to assess the survival of DA neurons. A monoclonal anti-MAP2 antibody diluted at 1/250 (clone AP20, Sigma-Aldrich) was used to assess the survival of cortical neurons. Microglial cells were characterized using a mouse anti-Ibal antibody (1/50; clone MRC OX-42; Pharmingen, BD Biosciences, Le Pont-de-Claix, France). All antibodies were diluted in PBS containing 0.2% Triton X-100, except the mouse anti-Ibal which was diluted in PBS only. Detection of the primary antibodies was performed with an Alexa Fluor-488 conjugate of an anti-mouse IgG antibody or with an Alexa Fluor-555 conjugate of an anti-rabbit antibody (1:500).

[2] = tested on: interleukin-10 (IL-10); conditions: in vivo; cited from earlier work
[3] = tested on: midbrain DA (TH^+) neurons; experiment: Spontaneous and progressive dopaminergic (DA) cell death in midbrain cultures; format: cell-based, Wistar rat; conditions: NAD^+ 3 mM, antibodies 1 μg/mL
Procedure: as §1
We used a model system in which DA cell loss was spontaneous. […]

[4] = tested on: cortical neurons; experiment: Oxidative stress model (H2O2) in cortical cultures; format: cell-based, Wistar rat; conditions: H2O2 75 μM between 12 and 14 DIV; NAD^+ 3 mM, antibodies 1 μg/mL
Procedure: (§2) Animals were treated in accordance with the Guide for the Care and Use of Laboratory Animals (National Research Council, 1996), European Directive 86/609, and the guidelines of the local institutional animal care and use committee. Cultures were prepared from the cortex of gestational age 15.5 Wistar rat embryos (Janvier Breeding Center, Le Genest St Isle, France). Dissociated cells in suspension obtained by mechanical trituration of cortical tissue pieces were seeded onto tissue culture supports precoated with 1 mg/mL polyethylenimine diluted in borate buffer pH 8.3 according to the protocol previously described for mesencephalic cultures. […] They were fed daily by replacing 70% of the medium. Routinely, cortical cultures were established on Nunc 24-well culture plates (Thermofischer Scientific, Rochester, N.Y.).
H2O2 (75 μM) was added to cortical cultures between 12 and 14 DIV in the presence or the absence of potential neuroprotective molecules. The cultures were then fixed in formaldehyde and immunostained using anti-MAP-2 antibody. The area occupied by MAP-2′ neurons was assessed using ImageJ.
(§3) The cultures were fixed for 12 min using 4% formaldehyde in Dulbecco's phosphate-buffered saline (PBS), then washed twice with PBS before an incubation step at 4° C. for 24 h with the following antibodies. […]

[5] = tested on: DA (TH^+) neurons; experiment: GDNF withdrawal model in midbrain cultures; conditions: GDNF 20 ng/mL for 10 DIV, deprived 11-15 DIV; NAD^+ 3 mM, antibodies 1 μg/mL
Text: They were fed daily by replacing 70% of the medium. Routinely, mesencephalic cultures were established on Nunc 24-well culture plates (Thermofischer Scientific, Rochester, N.Y.). […] TH^+ neurons represented approximately 1-2% of the total number of neuronal cells present in these cultures.
To evaluate the efficacy of our compounds in a more mature population of DA neurons, we also used a variation of the previous model system. More precisely, spontaneous DA cell death was prevented up to 10 DIV by a chronic treatment with GDNF (20 ng/mL) to favor the maturation of healthy DA neurons. Then, DA cell death was triggered by total withdrawal of GDNF for the next 5 days.
The cultures were fixed for 12 min using 4% formaldehyde in Dulbecco's phosphate-buffered saline (PBS), then washed twice with PBS before an incubation step at 4° C. for 24 h with the following antibodies. A monoclonal anti-TH antibody diluted 1/5000 (ImmunoStar, Inc., Hudson, Wis.) or a polyclonal anti-TH antibody diluted 1/1000 (US Biologicals, Salem, Mass.) was used to assess the survival of DA neurons. […] All antibodies were diluted in PBS containing 0.2% Triton X-100, except the mouse anti-Ibal which was diluted in PBS only.

[6] = tested on: cortical neurons; experiment: Measurement of glucose uptake in cortical neurons (2-NBDG); format: cell-based, Wistar rat; conditions: acute treatment 30 min, 7 DIV; HB7 1 μg/mL, NAD^+ 3 mM, insulin 100 nM
Procedure: In brief, cultures grown for 7 days were incubated with 2-NBDG (300 μM) for 30 min at 37° C. in the presence of test compounds in glucose-free N5 medium, washed twice to remove excess indicator, and then left to recover for 30 min before assessment. The fluorescent signal (excitation, 465 nm; emission, 540 nm) was acquired using an Arrayscan (ThermoFischer Scientific) and quantified using ImageJ. The average pixel intensity over the surface of each cell body was determined under the different experimental conditions. Background fluorescence was subtracted from raw data, and the results were expressed as a percentage of mean fluorescence intensity per cell under control conditions. 100 cells were analysed under each test condition.

[7] = tested on: cortical neurons; experiment: Excitotoxicity model (glutamate) in cortical cultures; format: cell-based, Wistar rat; conditions: glutamate 75 μM between 12 and 14 DIV; NAD^+ 3 mM, antibodies 1 μg/mL
Procedure: as §2
Glutamate (75 μM) was added to cortical cultures between 12 and 14 DIV in the presence or the absence of potential neuroprotective treatments. The cultures were then fixed in formaldehyde and immunostained using anti-MAP-2 antibody. The area occupied by MAP-2^+ neurons was assessed using ImageJ.
as §3

[8] = tested on: dopaminergic neurons; experiment: Prevention of dopaminergic neurons cell death (summary statement); format: cell-based
[9] = in humans; cited from earlier work

## NC(=O)c1ccc[n+]([C@@H]2O[C@H](COP(=O)(O)OP(=O)([O-])OC[C@H]3O[C@@H](n4cnc5c(N)ncnc54)[C@H](O)[C@@H]3O)[C@@H](O)[C@@H]2F)c1 [ARA-F-NAD, ara-2′-deoxy-2′-fluoro-nicotinamide adenine dinucleotide]
[1]; ARA-F-NAD 200 μM during the intoxication period, MPP^+ 3 μM
  MPP^+-induced DA cell loss: almost totally prevented
[1]; ARA-F-NAD 200 μM, Ned-19 2 μM
  neuroprotective effect in the presence of Ned-19: abolished

## daratumumab: anti-CD38 antibody approved for the treatment of multiple myeloma
[2]
  plasma levels of anti-inflammatory interleukin-10 (IL-10): decrease

## NC(=O)c1ccc[n+]([C@@H]2O[C@H](COP(=O)([O-])OP(=O)(O)OC[C@H]3O[C@@H](n4cnc5c(N)ncnc54)[C@H](O)[C@@H]3O)[C@@H](O)[C@H]2O)c1 [NAD^+, nicotinamide adenine dinucleotide]
[3]; 10 DIV cultures chronically exposed
  number of midbrain DA (TH^+) neurons: increased the number of midbrain DA (TH^+) neurons
[3]; Ned-19 2 μM
  neuroprotective effect in the presence of Ned-19: slightly but significantly
[4]
  protection from oxidative stress: protected from oxidative stress
[5]
  TH^+ neurons saved from death after GDNF deprivation: saved from death
[6]
  glucose uptake: only modestly increased glucose uptake
[1]; Ex-527 100 μM, HB7 1 μg/mL, NAD^+ 3 mM, MPP^+ model
  neuroprotective effect in the presence of Ex-527: only antagonized
[1]; MPP^+ 3 μM between 5 and 7 DIV, NAD^+ 3 mM, antibodies 1 μg/mL
  MPP^+-induced DA cell loss: either partially or almost totally prevented
[1]; dantrolene 30 μM (FIG. 9), HB7 1 μg/mL, NAD^+ 3 mM, cADPR 200 μM, MPP^+ model
  neuroprotective effect in the presence of dantrolene: only antagonized
[7]
  protection from excitotoxicity: protected from excitotoxicity
[8]
  concentration at which the neuroprotective effect was exerted: 3 mM

## isatuximab: anti-CD38 antibody
[2]
  plasma levels of anti-inflammatory interleukin-10 (IL-10): decrease

B1: ABBV-8E12: intravenously injected monoclonal antibody cited for its brain/plasma ratio in humans (antibody, chains of the INN, looked up, V domains shown)
VH: EVKVVESGGGLVQPGGSMKLSCVVSGFTFSNYWVNWVRQAPGKGLEWVAQIRLKSDNYATHYEESVKGRFTISRDDSKSSVYLQMNNLRAEDSGIYYCTNWEDYWGQGTTVTVSS
VL: DIVLTQSPDSLAVSLGERATISCRASQSVSTSRYSYIHWYQQKPGQPPKLLIKYASNLESGVPSRFSGSGSGTDFTLNIHPLEPEDFATYYCHHSWEIPLTFGQGTKLEIK
[9]
  Brain/plasma ratio: 0.385%
